From patent US20240199624A1, “COMPOUNDS, COMPOSITIONS, AND METHODS” (CHDI Foundation, Inc., priority 2022, published 2024)
pIC50: −log10 of the molar value.

Assays:
Assay type in all cases: biochemical
human MutSbeta [1] = target: T1, human MutSbeta (Homo sapiens, UniProt P20585+P43246); assay: ADP Glo assay 2.1; conditions: 10 μM ATP, 7 nM enzyme; buffer with 5 mM GSH, 0.2% Ovalbumin
T1 construct: Msh2(1-934), Gene ID NP_000242.1; Msh3(1-1137), Gene ID J04810.1
Procedure: (§1) ADP Glo assay 2.1: Enzyme human MutSbeta (Msh2(1-934), Gene ID NP_000242.1, Msh3(1-1137), Gene ID J04810.1) with 22 bp biotin-labeled DNA containing a GT-mismatch (purchased from Curia Global, TOP 5′-[…]-3′; BOT 3′-AGTAGCTAGGC - - - CGAAGTCTACC-5′-Biotin) was pre-incubated in assay buffer (25 mM HEPES pH=7.5, 150 mM KCl, 5 mM MgCl2, 5 mM GSH, 0.1% Pluronic F-127, 0.2% Ovalbumin) to allow formation of the enzyme-DNA complex. Plates with spotted compounds in serial dilutions in DMSO (80 nL) were filled with ATP (2 μL, 10 μM final concentration) followed by an incubation of 30 min at RT. Then, enzyme was added (2 μL, 7 nM final concentration) and the reaction was allowed to proceed for 60 min at 37° C. After the ATPase reaction, the commercially available “ADP-Glo Reagent” was added (incubate 40 min at RT) to deplete remaining ATP via the activity of […]. Subsequently, the commercially available “Kinase Detection Reagent” converted ADP to ATP via the activity of PEP and Pyruvate kinase. The ATP was then converted into light by Ultra-Glo Luciferase. The obtained luminescence was proportional to the ADP concentration generated during the initial ATPase reaction. The luminescence signal was measured with an Envision reader, raw data were analyzed towards controls (full reaction=0% inhibition; no reaction in absence of enzyme=100% inhibition) and IC50 curves were analyzed with the inhouse software Aplus.

human MutSbeta [2] = target: T1, human MutSbeta; assay: P33 SPA 1.1
Procedure: P33 SPA: Enzyme human MutSbeta (Msh2(1-934), Gene ID NP_000242.1, Msh3(1-1137), Gene ID J04810.1) and 22 bp biotin-labeled DNA containing a GT-mismatch (purchased from Curia Global, TOP 5′-[…]-3′; BOT 3′-AGTAGCTAGGC - - - CGAAGTCTACC-5′-Biotin) were pre-incubated at equimolar concentration for 15 min at room temperature (“RT”) in assay buffer (25 mM HEPES pH=7.5, 150 mM KCl, 2 mM MgCl2, 2 mM GSH, 0.01% Tween-20). ATP (10 μL, 2× final concentration of γ-[^33P]-ATP (final 0.1 nM; Hartmann Analytic, FF-301) and cold ATP (final 2 μM)) was added to compounds (400 nL spotted as concentration response in 100% DMSO into wells of an OptiPlate) and pre-incubated for 30 min at RT. Then, enzyme with DNA was added (10 μL, 2× final concentration of 7 nM) and incubated for 60 min at 37° C. in a total volume of 20 μL per well. Decay of [^33P] with a half-life of 25.4 days was corrected by increasing the concentration of the labelled nucleotide with the appropriate factor; all steps with radioactive ATP were conducted behind appropriate shielding. Then, 20 μL of a 1:2 mix of ammonium molybdate (20 mg/mL Ammonium molybdate in 2.4 M HCl) and SPA beads (ProteinA SPA beads from Perkin Elmer Cat #RPNQ0019 at 7.5 mg/mL+1% azide) was added per well and incubated at RT for 2 min. Then, 40 μL of 7 M CsCl and 0.1 M citrate was added per well and incubated for 20 h at RT before measuring on the MicroBeta (top read mode, 1 min per well). For full plate processing, all reagents were transferred with a pipettor (Selma, CyBio) apart from the final reagent (CsCl+citrate) which was added with a dispenser (MultiFlo, BioTek). Data analysis during assay development was done with Prism GraphPad.
P33 SPA 11: For the SPA 1.1 assay, the addition of reagents was reversed, i.e. enzyme was first added to the compounds and pre-incubated followed by ATP addition; thus, the assay was aligned with ADP Glo 1.1 reagent addition order. The assay was repeated under similar conditions, and the results are shown below in Table 5B. It is contemplated the solubility of the compounds and/or varying test occasions may account for variability of assay results.

human MutSbeta [3] = target: T1, human MutSbeta; assay: ADP Glo assay 2.2; conditions: as 2.1 but buffer with 2 mM GSH
Procedure: as §1
ADP Glo assay 2.2: A similar protocol was used as in the ADP Glo Assay 2.1 above, except the following assay buffer was used: 25 mM HEPES pH=7.5, 150 mM KCl, 5 mM MgCl2, 2 mM GSH, 0.1% Pluronic F-127, 0.2% Ovalbumin. It is contemplated the solubility of the compounds and/or varying test occasions and/or assay conditions may account for variability of assay results.

[4] = Table 5A, enzyme first added to compounds, then ATP
[5] = Table 5B, assay repeated under similar conditions

T1 sequence (P43246 whole entry): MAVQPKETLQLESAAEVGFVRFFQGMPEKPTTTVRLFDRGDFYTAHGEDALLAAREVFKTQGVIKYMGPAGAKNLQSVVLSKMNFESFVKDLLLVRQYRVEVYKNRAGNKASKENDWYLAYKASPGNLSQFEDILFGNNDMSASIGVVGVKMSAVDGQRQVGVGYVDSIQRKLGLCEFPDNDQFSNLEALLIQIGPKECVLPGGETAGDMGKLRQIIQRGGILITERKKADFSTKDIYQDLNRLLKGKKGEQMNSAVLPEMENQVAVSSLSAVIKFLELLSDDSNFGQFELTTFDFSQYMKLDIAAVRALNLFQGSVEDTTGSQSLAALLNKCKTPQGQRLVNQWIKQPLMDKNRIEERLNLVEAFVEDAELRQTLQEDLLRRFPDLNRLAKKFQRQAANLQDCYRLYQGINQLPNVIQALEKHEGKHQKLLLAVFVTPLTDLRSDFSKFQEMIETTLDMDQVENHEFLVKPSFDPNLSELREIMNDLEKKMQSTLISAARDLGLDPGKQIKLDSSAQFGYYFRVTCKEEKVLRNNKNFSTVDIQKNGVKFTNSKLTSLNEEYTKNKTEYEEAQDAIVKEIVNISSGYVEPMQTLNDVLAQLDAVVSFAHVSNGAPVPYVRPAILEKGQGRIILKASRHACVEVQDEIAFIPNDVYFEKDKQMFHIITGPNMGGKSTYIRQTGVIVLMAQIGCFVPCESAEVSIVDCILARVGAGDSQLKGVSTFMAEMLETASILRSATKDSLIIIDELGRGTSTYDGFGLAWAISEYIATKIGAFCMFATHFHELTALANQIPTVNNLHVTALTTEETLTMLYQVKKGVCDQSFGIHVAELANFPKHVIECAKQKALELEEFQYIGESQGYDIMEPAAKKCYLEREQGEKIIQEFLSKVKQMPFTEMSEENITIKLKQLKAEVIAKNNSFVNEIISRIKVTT
T1 sequence (P20585 whole entry): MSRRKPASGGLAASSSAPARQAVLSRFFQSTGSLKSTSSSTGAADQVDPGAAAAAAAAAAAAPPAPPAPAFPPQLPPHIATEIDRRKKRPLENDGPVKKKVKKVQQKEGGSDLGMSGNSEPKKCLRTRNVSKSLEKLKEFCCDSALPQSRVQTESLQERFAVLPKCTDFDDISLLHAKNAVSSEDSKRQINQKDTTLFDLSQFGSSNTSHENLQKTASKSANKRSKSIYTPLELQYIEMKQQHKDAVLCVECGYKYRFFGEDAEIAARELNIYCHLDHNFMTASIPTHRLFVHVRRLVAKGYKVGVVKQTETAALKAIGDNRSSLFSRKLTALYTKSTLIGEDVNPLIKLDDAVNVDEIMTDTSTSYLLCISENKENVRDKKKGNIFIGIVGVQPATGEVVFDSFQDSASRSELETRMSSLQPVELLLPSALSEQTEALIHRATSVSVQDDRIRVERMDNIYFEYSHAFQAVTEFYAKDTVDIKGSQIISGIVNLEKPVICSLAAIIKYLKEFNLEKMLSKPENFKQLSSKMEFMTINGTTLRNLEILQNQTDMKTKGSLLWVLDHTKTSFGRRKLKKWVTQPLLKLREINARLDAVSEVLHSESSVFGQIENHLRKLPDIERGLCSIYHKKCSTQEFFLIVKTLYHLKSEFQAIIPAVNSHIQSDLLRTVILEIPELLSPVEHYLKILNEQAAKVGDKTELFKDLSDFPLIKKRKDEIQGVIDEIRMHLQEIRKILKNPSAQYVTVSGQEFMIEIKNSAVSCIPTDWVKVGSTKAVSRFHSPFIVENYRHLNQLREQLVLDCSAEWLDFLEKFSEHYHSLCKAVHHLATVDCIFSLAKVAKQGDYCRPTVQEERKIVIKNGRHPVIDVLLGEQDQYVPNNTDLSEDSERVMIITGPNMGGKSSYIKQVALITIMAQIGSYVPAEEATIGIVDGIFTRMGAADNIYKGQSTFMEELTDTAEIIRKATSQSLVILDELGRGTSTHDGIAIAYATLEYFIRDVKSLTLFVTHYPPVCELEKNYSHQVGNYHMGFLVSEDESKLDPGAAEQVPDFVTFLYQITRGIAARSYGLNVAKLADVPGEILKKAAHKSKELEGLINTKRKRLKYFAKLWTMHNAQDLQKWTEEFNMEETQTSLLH

SMILES | pIC50 (human MutSbeta [1]) | pIC50 (human MutSbeta [2]; [4]) | pIC50 (human MutSbeta [2]; [5]) | pIC50 (human MutSbeta [3])
Cc1ccc(Nc2nc(N3CCN(C)CC3)nc3nccnc23)cc1C(N)=O [Compound 45] | 4.26 | 4.42 | 4.08 | 4.12
Cc1cc(CNc2nc(N3CCN(C(C)C)CC3)nc3nccnc23)ccc1F [Compound 26] | 4.44 | 4.23 | 4.12 | 4.02
CN1CCN(c2nc(NCc3cccc(S(C)(=O)=O)c3)c3nccnc3n2)CC1 [Compound 42] | ≤ 3.70 |  | 3.97 | 3.92
Cc1ccc(CNc2nc(N3CCCN(C)CC3)nc3nccnc23)cc1C [Compound 28] | 4.42 | 4.26 | 3.88 | 4.09
Cc1ccc(Nc2nc(N3CCN(C)CC3)nc3nccnc23)cc1S(N)(=O)=O [Compound 43] |  |  | 4.23 | 3.97
CC(=O)Nc1cccc(CNc2nc(N3CCN(C)CC3)nc3nccnc23)c1 [Compound 46] | 4.42 | 3.98 | 3.92 | 4.28
CCC(=O)Nc1cccc(Nc2nc(N3CCN(C)CC3)nc3nccnc23)c1 [Compound 37] | 4.15 | 4.47 | 3.92 | 4.01
Cc1cc(CNc2nc(N3CCCN(C)CC3)nc3nccnc23)ccc1F [Compound 29] | ≤ 3.70 | 3.92 | 4.21 | 
COc1cccc(Nc2nc(N3CCN(C)CC3)nc3nccnc23)c1 [Compound 40] | 4.80 | 4.37 | 4.21 | 4.47
CN1CCN(c2nc(Nc3cccc(F)c3)c3nccnc3n2)CC1 [Compound 34] | ≤ 3.70 | 4.37 | 4.05 | 
CN1CCN(c2nc(NCc3cccc(S(N)(=O)=O)c3)c3nccnc3n2)CC1 [Compound 44] |  |  | 4.15 | 4.06
Cc1ccc(Nc2nc(N3CCCN(C)CC3)nc3nccnc23)cc1C [Compound 23, N-(3,4-dimethylphenyl)-2-(4-methyl-1,4-diazepan-1-yl)pteridin-4-amine] | ≤ 3.70 | 4.15 | 4.19 | 
CN1CCN(c2nc(Nc3cccc(C4CC4C(=O)O)c3)c3nccnc3n2)CC1 (single isomer, unassigned) [Compound 47] | 4.26 | 4.23 | 4.25 | 4.42

The remaining lines, values ahead:

pIC50 (human MutSbeta [1]) | pIC50 (human MutSbeta [2]; [4]) | pIC50 (human MutSbeta [2]; [5]) | pIC50 (human MutSbeta [3]) | SMILES
4.89 | 4.72 | 5.02 | 5.00 | Cc1cnc2nc(N3CCN(C)CC3)nc(Nc3ccc(C)c(C)c3)c2n1 [Compound 38, N-(3,4-dimethylphenyl)-6-methyl-2-(4-methylpiperazin-1-yl)pteridin-4-amine]
4.89 | 4.92 | 5.05 | 4.57 | CN1CCN(c2nc(Nc3cccc(C4CC4C(=O)O)c3)c3nccnc3n2)CC1 (single isomer, unassigned) [Compound 48]
4.72 | 4.60 | 4.35 | 4.39 | Cc1ccc(Nc2nc(N3CCN(C)[C@@H](C)C3)nc3nccnc23)cc1C [Compound 31]
4.54 | 4.70 | 4.62 | 4.46 | Cc1cc(CNc2nc(N3CCN(C)CC3)nc3nccnc23)ccc1F [Compound 25]
4.46 | 4.36 | 4.47 | 4.37 | CN1CCN(c2nc(Nc3cccc(Cl)c3)c3nccnc3n2)CC1 [Compound 33, N-(3-chlorophenyl)-2-(4-methylpiperazin-1-yl)pteridin-4-amine]
4.43 | 4.62 | 4.60 | 4.22 | Cc1ccc(Nc2nc(N3CCN(C(C)C)CC3)nc3nccnc23)cc1C [Compound 24]
≤ 3.70 | 4.10 | 4.26 |  | CCC(=O)Nc1cccc(Nc2nc(N3CCCN(C)CC3)nc3nccnc23)c1 [Compound 35]
≤ 3.70 | 3.93 | 4.33 |  | Cc1ccc(Oc2nc(N3CCN(C)CC3)nc3nccnc23)cc1C [Compound 32]
4.66 | 4.55 | 4.74 | 4.59 | Cc1ccc(CNc2nc(N3CCN(C)CC3)nc3nccnc23)cc1C [Compound 27]
≤ 3.70 | 3.80 | 4.44 |  | Cc1cccc(Nc2nc(N3CCN(C)CC3)nc3nccnc23)c1C [Compound 39, N-(2,3-dimethylphenyl)-2-(4-methylpiperazin-1-yl)pteridin-4-amine]
4.64 | 4.64 | 4.55 | 4.60 | COc1ccc(Nc2nc(N3CCN(C)CC3)nc3nccnc23)cc1Cl [Compound 30]
4.55 |  | 4.30 | 4.30 | Cc1cc(Nc2nc(N3CCN(C)CC3)nc3nccnc23)ccc1C(N)=O [Compound 41]
